# Where “and” joins values, the source holds several entries; their conditions need not be identical. Equal entries are not always repeated. Toxic doses and inconclusive results are not listed.
# System: CD2F1 mice, L1210 leukemia ip, survival T/C
# Assay: NCI In Vivo Anticancer Drug Screen. Data for tumor model L1210 Leukemia (intraperitoneal) in CD2F1 (CDF1) mice
# Details: higher = longer survival
# Summary of the method: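 Compound-dosed mice with transplantable tumor versus matched vehicle controls; endpoint ratio T/C reported.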
# [1] = endpoint: mean survival time, dose: 100.0 mg/kg/injection, schedule: Q04DX003 (ip), vehicle: saline with Tween-80
# [2] = endpoint: mean survival time, dose: 100.0 mg/kg/injection, schedule: Q01DX001 (ip), vehicle: saline with Tween-80
# [3] = endpoint: mean survival time, dose: 200.0 mg/kg/injection, schedule: Q01DX001 (ip), vehicle: saline with Tween-80
# [4] = endpoint: mean survival time, dose: 200.0 mg/kg/injection, schedule: Q04DX003 (ip), vehicle: saline with Tween-80
# [5] = endpoint: mean survival time, dose: 400.0 mg/kg/injection, schedule: Q04DX003 (ip), vehicle: saline with Tween-80
# [6] = endpoint: mean survival time, dose: 25.0 mg/kg/injection, schedule: Q01DX009 (ip), vehicle: saline with Tween-80
# [7] = endpoint: mean survival time, dose: 100.0 mg/kg/injection, schedule: Q01DX009 (ip), vehicle: saline with Tween-80
# [8] = endpoint: mean survival time, dose: 100.0 mg/kg/injection, schedule: Q01DX001 (ip), vehicle: saline
# [9] = endpoint: mean survival time, dose: 200.0 mg/kg/injection, schedule: Q01DX001 (ip), vehicle: saline
# [10] = endpoint: mean survival time, dose: 400.0 mg/kg/injection, schedule: Q01DX001 (ip), vehicle: saline
# [11] = endpoint: mean survival time, dose: 150.0 mg/kg/injection, schedule: Q01DX001 (ip), vehicle: saline
# [12] = endpoint: mean survival time, dose: 200.0 mg/kg/injection, schedule: Q01DX009 (ip), vehicle: saline with Tween-80
smiles,measurement,setting,value
CC(C)(C)C1COP(=S)(c2ccccc2)OC1 (stereo not given),T/C,"endpoint: mean survival time, dose: 25.0 mg/kg/injection, schedule: Q04DX003 (ip), vehicle: Klucel (hydroxypropylcellulose) (HPC)",94 % of control and 103 % of control
same,T/C,"endpoint: mean survival time, dose: 50.0 mg/kg/injection, schedule: Q04DX003 (ip), vehicle: Klucel (hydroxypropylcellulose) (HPC)",103 % of control and 97 % of control
same,T/C,"endpoint: mean survival time, dose: 100.0 mg/kg/injection, schedule: Q04DX003 (ip), vehicle: Klucel (hydroxypropylcellulose) (HPC)",97 % of control and 102 % of control
CCCCC(C(=O)OCC)C(=O)c1ccccc1 (stereo not given) (tested in a mixture with another compound),T/C,[1],100 % of control
NC(CCc1ccc2c(c1)OCO2)C(=O)O (stereo not given),T/C,[2],97 % of control
same,T/C,[3],100 % of control
same,T/C,"endpoint: mean survival time, dose: 400.0 mg/kg/injection, schedule: Q01DX001 (ip), vehicle: saline with Tween-80",90 % of control
COc1ccccc1N1C(=O)CSC1=S,T/C,[1],96 % of control
same,T/C,[4],93 % of control
same,T/C,[5],106 % of control
OC1CCN(c2c3ccccc3nc3ccccc23)CC1,T/C,"endpoint: mean survival time, dose: 12.5 mg/kg/injection, schedule: Q04DX002 (ip), vehicle: saline",100 % of control
same,T/C,"endpoint: mean survival time, dose: 25.0 mg/kg/injection, schedule: Q04DX002 (ip), vehicle: saline",100 % of control
same,T/C,"endpoint: mean survival time, dose: 50.0 mg/kg/injection, schedule: Q04DX002 (ip), vehicle: saline",116 % of control
CCN(CC)CC(C)(C)C(=O)/C=C/c1ccc(/C=C/C(=O)C(C)(C)CN(CC)CC)cc1,T/C,"endpoint: median survival time, dose: 3.75 mg/kg/injection, schedule: Q01DX005 (ip), vehicle: saline",98 % of control
same,T/C,"endpoint: median survival time, dose: 7.5 mg/kg/injection, schedule: Q01DX005 (ip), vehicle: saline",107 % of control
same,T/C,"endpoint: median survival time, dose: 15.0 mg/kg/injection, schedule: Q01DX005 (ip), vehicle: saline",107 % of control
same,T/C,"endpoint: median survival time, dose: 30.0 mg/kg/injection, schedule: Q01DX005 (ip), vehicle: saline",116 % of control
CCCCCCCCCCCCN1CCCC(O)C1 (stereo not given),T/C,[6],116 % of control
same,T/C,"endpoint: mean survival time, dose: 50.0 mg/kg/injection, schedule: Q01DX009 (ip), vehicle: saline with Tween-80",92 % of control and 105 % of control
same,T/C,[7],105 % of control and 111 % of control
O=C(O)C1CCC(C(=O)O)S1 (stereo not given),T/C,[8],96 % of control
same,T/C,[9],101 % of control
same,T/C,[10],110 % of control
CC(=O)C(C(C)=O)C1=C(Cl)C(=O)c2ccccc2C1=O,T/C,"endpoint: mean survival time, dose: 75.0 mg/kg/injection, schedule: Q01DX001 (ip), vehicle: other",94 % of control
same,T/C,"endpoint: mean survival time, dose: 150.0 mg/kg/injection, schedule: Q01DX001 (ip), vehicle: other",100 % of control
same,T/C,"endpoint: mean survival time, dose: 300.0 mg/kg/injection, schedule: Q01DX001 (ip), vehicle: other",97 % of control
CC(=O)CCCOC(C)=O,T/C,[8],103 % of control
same,T/C,[9],100 % of control
same,T/C,[10],100 % of control
Cc1cccnc1-n1c(N)cc(=O)[nH]c1=S,T/C,[1],97 % of control
same,T/C,[4],101 % of control
same,T/C,[5],100 % of control
[Cl][Pt+2][Cl].[NH-]Cc1ccccc1.[NH-]Cc1ccccc1,T/C,"endpoint: mean survival time, dose: 50.0 mg/kg/injection, schedule: Q01DX001 (ip), vehicle: saline with Tween-80",110 % of control
same,T/C,[2],110 % of control
same,T/C,[3],110 % of control
O=C(CO)C(O)C(O)C(O)C(O)CO (stereo not given),T/C,[8],100 % of control and 105 % of control
same,T/C,[9],102 % of control and 94 % of control
same,T/C,[10],96 % of control
O=CN(O)CC(=O)O.[Zn],T/C,"endpoint: mean survival time, dose: 12.5 mg/kg/injection, schedule: Q04DX003 (ip), vehicle: saline",96 % of control
same,T/C,"endpoint: mean survival time, dose: 25.0 mg/kg/injection, schedule: Q04DX003 (ip), vehicle: saline",95 % of control
O=[N+]([O-])c1cc(S(=O)(=O)c2ccc(F)c([N+](=O)[O-])c2)ccc1F,T/C,"endpoint: mean survival time, dose: 6.25 mg/kg/injection, schedule: Q01DX009 (ip), vehicle: Klucel (hydroxypropylcellulose) (HPC)",98 % of control
same,T/C,"endpoint: mean survival time, dose: 12.5 mg/kg/injection, schedule: Q01DX009 (ip), vehicle: Klucel (hydroxypropylcellulose) (HPC)",98 % of control
same,T/C,"endpoint: mean survival time, dose: 25.0 mg/kg/injection, schedule: Q01DX009 (ip), vehicle: Klucel (hydroxypropylcellulose) (HPC)",98 % of control
COC1OC(COC(=O)c2ccc([N+](=O)[O-])cc2)C(SC#N)C1O (stereo not given),T/C,[11],93 % of control
CS(=O)(=O)/C(C#N)=N/O,T/C,"endpoint: mean survival time, dose: 50.0 mg/kg/injection, schedule: Q01DX001 (ip), vehicle: saline",103 % of control
same,T/C,[8],98 % of control
same,T/C,[9],101 % of control
CN1CCCC1CCNc1nc(Nc2ccc(Cl)c(Cl)c2)nc2ccc(Cl)cc12 (stereo not given),T/C,[6],97 % of control
same,T/C,[2],103 % of control
CCOC(=O)Nc1cc2c(c(N)n1)N=C(c1ccccc1)CN2,T/C,"endpoint: median survival time, dose: 0.63 mg/kg/injection, schedule: Q01DX009 (ip), vehicle: saline with Tween-80",118 % of control and 101 % of control
same,T/C,"endpoint: median survival time, dose: 0.75 mg/kg/injection, schedule: Q01DX009 (ip), vehicle: saline with Tween-80",106 % of control
NC(=O)c1csc(COC(CO)CO)n1,T/C,"endpoint: median survival time, dose: 15.38 mg/kg/injection, schedule: Q01DX009 (ip), vehicle: water",93 % of control
same,T/C,"endpoint: median survival time, dose: 30.75 mg/kg/injection, schedule: Q01DX009 (ip), vehicle: water",97 % of control
same,T/C,"endpoint: median survival time, dose: 61.5 mg/kg/injection, schedule: Q01DX009 (ip), vehicle: water",101 % of control
same,T/C,"endpoint: median survival time, dose: 123.0 mg/kg/injection, schedule: Q01DX009 (ip), vehicle: water",100 % of control
CSc1ccc(NC=O)cc1,T/C,"endpoint: mean survival time, dose: 75.0 mg/kg/injection, schedule: Q01DX001 (ip), vehicle: saline",98 % of control
same,T/C,[11],100 % of control
same,T/C,"endpoint: mean survival time, dose: 300.0 mg/kg/injection, schedule: Q01DX001 (ip), vehicle: saline",100 % of control
C#CCNC1=C(C)C(=O)C2=C(C1=O)[C@H](COC(N)=O)[C@]1(O)[C@H]3[C@@H](CN21)N3C (stereo not given in full),T/C,"endpoint: mean survival time, dose: 1.5 mg/kg/injection, schedule: Q01DX001 (ip), vehicle: water",104 % of control
same,T/C,"endpoint: mean survival time, dose: 3.0 mg/kg/injection, schedule: Q01DX001 (ip), vehicle: water",102 % of control
same,T/C,"endpoint: mean survival time, dose: 6.0 mg/kg/injection, schedule: Q01DX001 (ip), vehicle: water",100 % of control
same,T/C,"endpoint: mean survival time, dose: 12.0 mg/kg/injection, schedule: Q01DX001 (ip), vehicle: water",110 % of control
same,T/C,"endpoint: mean survival time, dose: 24.0 mg/kg/injection, schedule: Q01DX001 (ip), vehicle: water",110 % of control
O=C(O)CCOc1ccc([N+](=O)[O-])cc1,T/C,[7],96 % of control
same,T/C,[12],98 % of control
same,T/C,"endpoint: mean survival time, dose: 400.0 mg/kg/injection, schedule: Q01DX009 (ip), vehicle: saline with Tween-80",94 % of control
O=C1Nc2ccccc2C1=O,T/C,"endpoint: mean survival time, dose: 100.0 mg/kg/injection, schedule: Q01DX001 (ip), vehicle: Klucel (hydroxypropylcellulose) (HPC)",96 % of control
same,T/C,"endpoint: mean survival time, dose: 200.0 mg/kg/injection, schedule: Q01DX001 (ip), vehicle: Klucel (hydroxypropylcellulose) (HPC)",102 % of control
same,T/C,"endpoint: mean survival time, dose: 400.0 mg/kg/injection, schedule: Q01DX001 (ip), vehicle: Klucel (hydroxypropylcellulose) (HPC)",101 % of control
COc1cc(OC)cc(C2=NNc3n[nH]c(=S)n3N2)c1,T/C,[7],91 % of control
same,T/C,[1],93 % of control
same,T/C,[12],93 % of control
same,T/C,[4],90 % of control
same,T/C,[5],102 % of control
C=C1C(=O)OC(CCCCCCCCCCCCC)C1C(=O)O (stereo not given),T/C,"endpoint: mean survival time, dose: 10.0 mg/kg/injection, schedule: Q04DX002 (ip), vehicle: saline with Tween-80",108 % of control
same,T/C,"endpoint: mean survival time, dose: 20.0 mg/kg/injection, schedule: Q04DX002 (ip), vehicle: saline with Tween-80",87 % of control
CC(=O)NC(CCC(=O)O)C(=O)O.[NH-]C1CCCCC1[NH-].[Pt+2] (stereo not given),T/C,"endpoint: median survival time, dose: 6.25 mg/kg/injection, schedule: Q04DX003 (ip), vehicle: saline",97 % of control
same,T/C,"endpoint: median survival time, dose: 12.5 mg/kg/injection, schedule: Q04DX003 (ip), vehicle: saline",110 % of control
same,T/C,"endpoint: median survival time, dose: 25.0 mg/kg/injection, schedule: Q04DX003 (ip), vehicle: saline",102 % of control
same,T/C,"endpoint: median survival time, dose: 50.0 mg/kg/injection, schedule: Q04DX003 (ip), vehicle: saline",97 % of control
same,T/C,"endpoint: median survival time, dose: 100.0 mg/kg/injection, schedule: Q04DX003 (ip), vehicle: saline",112 % of control
CC/S(=N\S(=O)(=O)c1ccc(C)cc1)c1ccccc1 (stereo not given),T/C,[1],104 % of control
same,T/C,[4],108 % of control
same,T/C,[5],98 % of control
COc1cc(NS(C)(=O)=O)ccc1Nc1c2ccc([N+](=O)[O-])cc2nc2c(C)cccc12,T/C,"endpoint: mean survival time, dose: 3.75 mg/kg/injection, schedule: Q04DX003 (ip), vehicle: saline with Tween-80",151 % of control
same,T/C,"endpoint: mean survival time, dose: 7.5 mg/kg/injection, schedule: Q01DX009 (ip), vehicle: saline with Tween-80",111 % of control
same,T/C,"endpoint: mean survival time, dose: 7.5 mg/kg/injection, schedule: Q04DX003 (ip), vehicle: saline with Tween-80",164 % of control
same,T/C,"endpoint: mean survival time, dose: 15.0 mg/kg/injection, schedule: Q04DX003 (ip), vehicle: saline with Tween-80",235 % of control
same,T/C,"endpoint: mean survival time, dose: 37.5 mg/kg/injection, schedule: Q04DX003 (ip), vehicle: saline",109 % of control
same,T/C,"endpoint: mean survival time, dose: 75.0 mg/kg/injection, schedule: Q04DX003 (ip), vehicle: saline",86 % of control

# From PubChem BioAssay AID256 (DTP/NCI, 2004)
